Data published in patent US8143288B2, “Inhibitors of HCV replication” (priority 2005, dated 2012).
Where two headings read alike, the source gives them in different places.

What was measured:
[1] = test system: Y2065H HCV 1b-377-neo replicon cells; assay: FRET assay on Y2065H (Y > H) replicon cells; assay type: cell-based; details: for EC50: Hepatitis C virus
[2] = test system: Compound A-r replicon cells; assay: FRET assay on selected Compound A-r replicon cells; assay type: cell-based, HCV; details: judged by the FRET assay; cells selected with Compound A 5-6 weeks
Description: HCV 1b-377-neo replicon cells were plated in 100-mm plates with ˜25% confluence after 24 hour seeding. Compound A (prepared by the procedure described in WO04/014852, published Feb. 19, 2004) was added at the final concentrations of 5, 10 and 20 μM in the presence of G418. Wild type replicon cells 15 in the absence of the compound were used as a control. After 5-6 weeks, both wt replicon cells and selected cells were tested for their sensitivity to Compound A. In addition, cell lines derived from individual colonies from different concentrations of selective Compound A were also isolated, expanded and tested. In the initial test, approximately 60-fold resistance, judged by the FRET assay, was observed between wt replicon cells and selected replicon cells (designated as Compound A-r replicon cells).

[3] = Alamar blue cytotoxicity (CC50) in replicon cells; assay type: cell-based; details: human, wild-type HCV 1b-377-neo replicon cells
Description: (§1) At subsequent various times (typically 72 hours), 10% final volume Alamar blue (Cat#00-100, Trek Diagnostics, Cleveland, Ohio) was added to each well. The plates were returned to the incubator for 5 hours and then read in the Cytoflour (PE Biosystems) to determine Alamar blue conversion in each well as a measure of cellular toxicity. After reading the Alamar blue fluorescence following the manufacturers directions, plates were rinsed 2× with PBS and then used for FRET assay by the addition of 30 μl of the FRET peptide assay reagent (described above) per well. The plate was then placed into the Cytoflour 4000 instrument which had been set to 340 excite/490 emission, automatic mode for 20 cycles and the plate read in a kinetic mode. Typically, the signal to noise using an endpoint analysis after the reads was at least three-fold.
Compound analysis depended upon the quantification of the relative HCV replicon inhibition and the relative cytotoxicity values. To calculate cytotoxicity values, the average alamar blue fluorescence signals from the control wells in row 11 were set as 100% non-toxic. The individual signals in each of the compound test wells were then divided by the average control signal and multiplied by 100% to determine […]. […]

[4] = test system: Y2065H HCV 1b-377-neo replicon; assay: Colony formation, Y2065H replicon RNA in Huh-7 cells; assay type: cell-based; details: Y > H RNA transfected, 2 μM Compound A, 3 weeks G418 selection
Text: (§2) To determine if the Y2065H change was necessary and sufficient to confer resistance to Compound A, the single mutation was generated in the HCV 1b-377-neo replicon. […] To further verify this, colonies formed in the absence of Compound A were isolated and expanded for both the wild-type and Y2065H clones. Sensitivity of these cells to Compound A was then examined using the FRET assay.

[5] = Alamar blue cytotoxicity (CC50) in Y > H replicon cells; assay type: cell-based; details: human
Description: as §1
The assay was further adapted to accommodate titrations of compounds to determine EC50 and CC50 values.
as §2

[6] = test system: wild-type HCV 1b-377-neo replicon; assay: Colony formation, wild-type replicon RNA in Huh-7 cells; assay type: cell-based; details: 2 μM Compound A
Text: as §2

[7] = test system: HCV 1b-377-neo replicon cells; assay: HCV replicon FRET assay; assay type: cell-based; details: Hepatitis C virus
HCV replicon = assay: Combination studies in HCV replicon system (FRET, method of Chou); assay type: cell-based; details: for combination response: in combination with Example 3, replicon cells, 72 hours
Description: Since clinical drug resistance often develops in viral infections following single-agent therapies, there is a need to assess the additive, antagonistic, or synergistic properties of combination therapies. […] Drugs were tested at eleven concentrations each, diluted in DMSO by 3-fold dilutions. The highest concentration used for the four HCV inhibitors was 0.1 μM for Example 3 and 20 μM for the three other HCV antivirals. […] The drugs were tested as monotherapies and in combination with Example 3 at various concentration ratios. Cells were exposed to compounds for 72 hours and the amount of HCV inhibition was then determined using the FRET assay. The potential cytotoxicities of these combined agents were also analyzed in parallel by Alamar blue staining. The degree of antagonism or synergy was determined over a range of drug concentrations, and the combination response curves were fit to assess the antiviral effects of the drug treatment combinations. The concentration ratios were analyzed using the method of Chou. Table 5 reports the combination indices (CI) and the asymptotic confidence intervals at the different concentration ratios. All combination indices were tested for departure from additivity using isobologram methods.

HCV = HCV therapy, Poynard et al. 1998; cited from earlier work
[8] = Wild-type replicon cells, FRET assay, read-out: EC50
[9] = HCV replicon, read-out: Activity (EC50)
[10] = monotherapy, 72 hours, FRET assay, read-out: EC50 in monotherapy
[11] = combined with Example 3, molar ratio 1:1
[12] = combined with Example 3, molar ratio 1:2.5
[13] = combined with Example 3, molar ratio 2.5:1

C[C@H](NC(=O)OCc1ccccc1)C(=O)Nc1ccc(C2S/C(=N\c3cccc(F)c3)N(Cc3ccco3)C2=O)cc1 (stereo partly shown) [Compound A, reference compound]
EC50 [1]: > 5 µM | resistance between wt replicon cells and selected replicon cells [2]: approximately 60 fold | CC50 at 72 h [3]: > 5 µM | Number of colonies [4]: 10 | CC50 at 72 h [5]: > 5 µM | Number of colonies ([6]; Wild-type RNA transfected, 3 weeks G418 selection): 3 | reduction in colony number ([6]; wild-type replicon RNA): 95% | EC50 [7, 8]: 1.5 µM

O=C(Nc1ccc(/C=C/c2ccc(NC(=O)[C@@H]3CCCN3C(=O)Cc3ccccc3)cc2)cc1)[C@@H]1CCCN1C(=O)Cc1ccccc1 [Example 3]
EC50 [1]: > 5 µM | window of resistance in Y2065H cells as compared to wild-type cells ([1]; Y2065H vs wild-type cells): > 100 fold | CC50 at 72 h [3]: > 5 µM | combination response (HCV replicon): no significant drug antagonism | CC50 at 72 h [5]: > 5 µM | EC50 [7, 9]: 0.0001 to 0.09 µM | EC50 [7, 8]: < 0.05 µM | EC50 [7, 10]: < 0.05 µM

Cc1cc(C)c(S(=O)(=O)N2CCC[C@H]2C(=O)Nc2ccc(/C=C/c3ccc(NC(=O)[C@@H]4CCCN4S(=O)(=O)c4c(C)cc(C)cc4C)cc3)cc2)c(C)c1 [Example 279]
EC50 [7, 9]: 0.1 to 1 µM

O=C(Nc1ccc(/C=C/c2ccc(NC(=O)[C@@H]3CCCN3S(=O)(=O)c3ccccc3OC(F)(F)F)cc2)cc1)[C@@H]1CCCN1S(=O)(=O)c1ccccc1OC(F)(F)F [Example 280]
EC50 [7, 9]: 1 to 10 µM

Cc1ccccc1S(=O)(=O)N1CCC[C@H]1C(=O)Nc1ccc(/C=C/c2ccc(NC(=O)[C@@H]3CCCN3S(=O)(=O)c3ccccc3C)cc2)cc1 [Example 282]
EC50 [7, 9]: 1 to 10 µM

O=C(Nc1ccc(/C=C/c2ccc(NC(=O)[C@@H]3CCCN3S(=O)(=O)Cc3cccc(C(F)(F)F)c3)cc2)cc1)[C@@H]1CCCN1S(=O)(=O)Cc1cccc(C(F)(F)F)c1 [Example 283]
EC50 [7, 9]: 1 to 10 µM

CC(C)N(C(=O)N1CCCC1C(=O)Nc1ccc(/C=C/c2ccc(NC(=O)C3CCCN3C(=O)N(C(C)C)C(C)C)cc2)cc1)C(C)C (stereo not shown) [Example 284]
EC50 [7, 9]: 0.0001 to 0.09 µM

CC(C)NC(=O)N1CCC[C@H]1C(=O)Nc1ccc(/C=C/c2ccc(NC(=O)[C@@H]3CCCN3C(=O)NC(C)C)cc2)cc1 [Example 285]
EC50 [7, 9]: 0.1 to 1 µM

O=C(Nc1ccc(/C=C/c2ccc(NC(=O)[C@@H]3CCCN3C(=O)N3CCCC3)cc2)cc1)[C@@H]1CCCN1C(=O)N1CCCC1 [Example 286]
EC50 [7, 9]: 0.1 to 1 µM

O=C(Nc1ccc(/C=C/c2ccc(NC(=O)[C@@H]3CCCN3C(=O)N3CCOCC3)cc2)cc1)[C@@H]1CCCN1C(=O)N1CCOCC1 [Example 287]
EC50 [7, 9]: 0.0001 to 0.09 µM

CN(C)C(=O)N1CCC[C@H]1C(=O)Nc1ccc(/C=C/c2ccc(NC(=O)[C@@H]3CCCN3C(=O)N(C)C)cc2)cc1 [Example 288]
EC50 [7, 9]: 0.1 to 1 µM

CCN(CC)C(=O)N1CCC[C@H]1C(=O)Nc1ccc(/C=C/c2ccc(NC(=O)[C@@H]3CCCN3C(=O)N(CC)CC)cc2)cc1 [Example 289]
EC50 [7, 9]: 0.0001 to 0.09 µM

CC(C)N(C(=O)N1CCC[C@H]1C(=O)Nc1ccc(/C=C/c2ccc(NC(=O)[C@@H]3CCCN3C(=O)N(C(C)C)C(C)C)cc2)cc1)C(C)C [Example 290]
EC50 [7, 9]: 0.0001 to 0.09 µM

O=C(Cc1ccccc1)C1C[C@H](O)C[C@H]1C(=O)Nc1ccc(/C=C/c2ccc(NC(=O)[C@@H]3C[C@@H](O)CN3C(=O)Cc3ccccc3)cc2)cc1 (stereo partly shown) [Example 291]
EC50 [7, 9]: 0.0001 to 0.09 µM

O=C(Nc1ccc(/C=C/c2ccc(NC(=O)[C@@H]3CCCN3C(=O)Cc3ccccc3)cc2)cc1)C1CC1 [Example 292]
EC50 [7, 9]: 0.1 to 1 µM

O=C(Nc1ccc(/C=C/c2ccc(NC(=O)[C@@H]3CCCN3C(=O)OCc3ccccc3)cc2)cc1)C1CC1 [Example 293]
EC50 [7, 9]: 0.1 to 1 µM

CC(C)(C)O[C@@H]1C[C@@H](C(=O)Nc2ccc(/C=C/c3ccc(NC(=O)[C@@H]4C[C@@H](OC(C)(C)C)CN4C(=O)OCc4ccccc4)cc3)cc2)N(C(=O)OCc2ccccc2)C1 [Example 294]
EC50 [7, 9]: 0.1 to 1 µM

CC(C)(C)O[C@@H]1C[C@@H](C(=O)Nc2ccc(/C=C/c3ccc(NC(=O)[C@@H]4C[C@@H](OC(C)(C)C)CN4C(=O)Cc4ccccc4)cc3)cc2)N(C(=O)Cc2ccccc2)C1 [Example 295]
EC50 [7, 9]: 1 to 10 µM

CN(C)[C@@H](C(=O)N1CCC[C@H]1C(=O)Nc1ccc(/C=C/c2ccc(NC(=O)[C@@H]3CCCN3C(=O)[C@@H](c3ccccc3)N(C)C)cc2)cc1)c1ccccc1 [Example 296]
EC50 [7, 9]: 0.0001 to 0.09 µM

CN(C)c1cc(C(=O)N2CCC[C@H]2C(=O)Nc2ccc(/C=C/c3ccc(NC(=O)[C@@H]4CCCN4C(=O)c4cc(N(C)C)c5ccccc5n4)cc3)cc2)nc2ccccc12 [Example 297]
EC50 [7, 9]: 0.0001 to 0.09 µM

O=C(Nc1ccc(/C=C/c2ccc(NC(=O)[C@@H]3CCCN3C(=O)[C@H](O)c3ccccc3)cc2)cc1)[C@@H]1CCCN1C(=O)[C@H](O)c1ccccc1 [Example 298]
EC50 [7, 9]: 0.0001 to 0.09 µM

C[C@@](O)(C(=O)N1CCC[C@H]1C(=O)Nc1ccc(/C=C/c2ccc(NC(=O)[C@@H]3CCCN3C(=O)[C@@](C)(O)c3ccccc3)cc2)cc1)c1ccccc1 [Example 299]
EC50 [7, 9]: 0.0001 to 0.09 µM

O=C(Nc1ccc(/C=C/c2ccc(NC(=O)[C@@H]3CCCN3C(=O)c3nccc4ccccc34)cc2)cc1)[C@@H]1CCCN1C(=O)c1nccc2ccccc12 [Example 300]
EC50 [7, 9]: 0.0001 to 0.09 µM

C=CC1CC1(NC(=O)[C@@H]1C[C@@H](Oc2cc(-c3ccccc3)nc3cc(OC)ccc23)CN1C(=O)C(NC(=O)OC(C)(C)C)C(C)(C)C)C(=O)O (stereo partly shown) [protease inhibitor]
CI at HCV inhibition of: 75% (HCV replicon; [11]): 0.96 +/− 0.38 | CI at HCV inhibition of: 90% (HCV replicon; [11]): 0.91 +/− 0.55 | CI at HCV inhibition of: 95% (HCV replicon; [11]): 0.88 +/− 0.69 | Overall Result (HCV replicon; [11]): Additive | CI at HCV inhibition of: 50% (HCV replicon; combined with Example 3, molar ratio 1:1 (first number Example 3)): 1.05 +/− 0.29 | CI at HCV inhibition of: 75% (HCV replicon; [12]): 0.78 +/− 0.22 | CI at HCV inhibition of: 90% (HCV replicon; [12]): 0.76 +/− 0.33 | CI at HCV inhibition of: 95% (HCV replicon; [12]): 0.75 +/− 0.43 | Overall Result (HCV replicon; [12]): Synergistic/Additive | CI at HCV inhibition of: 50% (HCV replicon; combined with Example 3, molar ratio 1:2.5 (first number Example 3)): 0.82 +/− 0.17 | CI at HCV inhibition of: 75% (HCV replicon; [13]): 0.88 +/− 0.27 | CI at HCV inhibition of: 90% (HCV replicon; [13]): 0.81 +/− 0.40 | CI at HCV inhibition of: 95% (HCV replicon; [13]): 0.77 +/− 0.49 | Overall Result (HCV replicon; [13]): Additive | CI at HCV inhibition of: 50% (HCV replicon; combined with Example 3, molar ratio 2.5:1 (first number Example 3)): 0.97 +/− 0.22 | combination response (HCV replicon): additive response | EC50 [7, 10]: 0.33 µM

alpha-interferon and ribavirin
sustained efficacy (HCV): 40 % of patients
